“And” between values parts separate entries of the source, which are not always exact repeats. Equal entries are not always repeated.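 Cultured in 96-well plates, cells were exposed to test compound for 48 hours across five concentrations. GI50 marks 50% less growth. The concentration for full growth arrest is given as TGI.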
Tests used:
Assay in all cases: NCI tumour cell line growth inhibition, 48 h
NCI-H23 lung = tested on: NCI-H23 lung
KM12 colon = tested on: KM12 colon
SW-620 colon = tested on: SW-620 colon
U251 CNS = tested on: U251 CNS
HOP-62 NSCLC = tested on: HOP-62 NSCLC
LOX IMVI melanoma = tested on: LOX IMVI melanoma
SF-268 CNS = tested on: SF-268 CNS
UACC-257 melanoma = tested on: UACC-257 melanoma
OVCAR-3 ovarian = tested on: OVCAR-3 ovarian
A549 NSCLC = tested on: A549 NSCLC

Row | Compound | TGI (NCI-H23 lung) [µM] | TGI (KM12 colon) | TGI (SW-620 colon) [µM] | TGI (U251 CNS) [µM] | TGI (HOP-62 NSCLC) [µM] | TGI (LOX IMVI melanoma) [µM] | TGI (SF-268 CNS) | TGI (UACC-257 melanoma) [µM] | TGI (OVCAR-3 ovarian) [µM] | TGI (A549 NSCLC) | GI50 (OVCAR-3 ovarian) [µM] | GI50 (A549 NSCLC) [µM] | GI50 (NCI-H23 lung) [µM] | GI50 (KM12 colon) [µM] | GI50 (SW-620 colon) [µM] | GI50 (U251 CNS) [µM] | GI50 (HOP-62 NSCLC) [µM] | GI50 (UACC-257 melanoma) [µM]
1 | CCCCCCCSc1nc2c(C(=O)OCC)ncn2c2ccccc12 | > 100 | > 100 µM | > 100 | > 100 | > 100 | > 100 | > 100 µM | > 100 | > 100 |  |  |  |  |  |  |  |  | 
2 | O=NC1C(Cl)C2CC1C1C(Br)C(Br)CC21 (stereo not drawn) | > 100 | > 100 µM | > 100 | > 100 | > 100 | > 100 | > 100 µM |  | > 100 | > 100 µM |  |  |  |  |  |  |  | 
3 | CN1CCCCC1CCN1CCCCC1 (stereo not drawn) | > 100 | > 100 µM | > 100 | > 100 | > 100 | > 100 | > 100 µM | > 100 | > 100 | > 100 µM |  |  |  |  |  |  |  | 
4 | C/C=C/[P+](c1ccccc1)(c1ccccc1)c1ccccc1 | 14.3 | 7.7 µM | 24.3 | 15.1 | 27.4 | 7.26 | 17.1 µM | 11.2 | 7.94 | > 100 µM |  |  |  |  |  |  |  | 
5 | Cc1sc(Cc2ccccc2)nc1-c1ccc(N)cc1 | > 100 | 46.3 µM | > 100 | 74.7 |  | 29.8 | > 100 µM | 84.5 | 68.8 | > 100 µM |  |  |  |  |  |  |  | 
6 | CCOC(=O)/C(Cl)=C(\C)Nc1nc2c(ccc3ccccc32)s1 | > 100 | > 100 µM | > 100 | > 100 | > 100 |  | > 100 µM | > 100 | > 100 |  |  |  |  |  |  |  |  | 
7 | CN(C)CCCNc1ccc2ncn3c4ccccc4c(=O)c1c23 | 29 | 20.3 µM | 26.5 | > 100 | > 100 | 13.7 | 40.4 µM | 61.3 | 56.2 |  |  |  |  |  |  |  |  | 
8 | CC12CCC(C(=O)OC1=O)C(C)(C)O2 (stereo not drawn) | > 100 | > 100 µM | > 100 | > 100 | > 100 | > 100 | > 100 µM | > 100 | > 100 | > 100 µM |  |  |  |  |  |  |  | 
9 | O=S(=O)(Sc1ccc(Cl)cc1)c1ccc(Cl)cc1 | 30.5 | 32.5 µM | 32.6 | 22.3 | 30.9 | 24.8 | 21.3 µM | 36.3 | 30.2 | 32.7 µM |  |  |  |  |  |  |  | 
10 | CC(=O)C(O)N1C(=O)C=CC1=O (stereo not drawn) |  | 25 µM and 31.2 µM and 34.7 µM |  |  |  |  | 17.9 µM and 51.8 µM |  |  | 16.4 µM and 35.9 µM | 11600 |  |  |  |  |  |  | 
11 | Cc1cc(NCc2cc(Nc3ccnc4cc(Cl)ccc34)ccc2F)nc(N2CCCC2)n1 | 4.68 | 4.53 µM | 2.95 | 3.32 | 3.14 |  |  | 3.53 | 3.22 | 6.02 µM | 1.63 | 2.22 | 1.83 | 1.97 | 1.23 | 1.73 | 1.42 | 1.87
12 | COc1ccc(N2C(=O)C3c4[nH]c5c(C)cccc5c4C4CCC(C(C)(C)C)CC4C3C2=O)cc1 (stereo not drawn) | > 10 | > 10 µM | > 10 | > 10 | > 10 | 4.17 | > 10 µM |  | > 10 | > 10 µM |  |  |  |  |  |  |  | 
13 | N#CC(c1ccccc1)c1nc2ccc(=N)cc-2n(O)c1C(C#N)c1ccccc1 (stereo not drawn) | > 100 | > 100 µM | > 100 | > 100 | > 100 | > 100 | > 100 µM | > 100 | > 100 | > 100 µM |  |  |  |  |  |  |  | 
14 | CN(C)CCNc1nc(-c2ccc3ccccc3c2)nc2nc[nH]c12 | 23.9 | 19.3 µM | 24.6 | 31 | 23.1 | 18.8 | 25.1 µM | 19.5 | 21 | 26.3 µM |  |  |  |  |  |  |  | 
